Measured values from publication PMC12667198, “Menthol‐like cooling compounds, including (R)‐(‐)‐carvone, inhibit the human bitter taste receptors for saccharin and acesulfame K” (FEBS Open Bio, 2025).

Each compound was assayed against T1, TAS2R31 (Homo sapiens, UniProt P59538) (assay: luminescence (mt-apoclytin II) Ca2+ assay, HEK293T).
T1 construct: pEAK10; transient in HEK293T with chimeric G protein Galpha16gust44 (and mt-apoclytin II reporter)
T1 sequence (P59538 1-309): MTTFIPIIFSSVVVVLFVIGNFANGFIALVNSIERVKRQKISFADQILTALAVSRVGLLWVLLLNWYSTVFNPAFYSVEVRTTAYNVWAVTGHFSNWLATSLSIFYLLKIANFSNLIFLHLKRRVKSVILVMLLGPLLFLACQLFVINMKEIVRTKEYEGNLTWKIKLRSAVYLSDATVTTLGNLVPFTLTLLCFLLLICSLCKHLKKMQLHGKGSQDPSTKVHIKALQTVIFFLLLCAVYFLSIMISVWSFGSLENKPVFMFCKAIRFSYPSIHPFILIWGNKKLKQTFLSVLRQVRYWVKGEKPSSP
Assay type: cell-based

| Structure (SMILES) | IC50 |
| --- | --- |
| C=C(C)[C@@H]1CC=C(C)C(=O)C1 [(R)‐(‐)‐carvone] | 86 µM |
| CC(C)[C@@H]1CC[C@@H](C)C[C@H]1O [(−)‐menthol] | 310 ± 58 µM |
| CC(C)[C@H]1CC[C@H](C)C[C@@H]1O [(+)‐menthol] | 220 ± 15 µM |
| CC1=CC(=O)[C@@H](C(C)C)CC1 [(R)‐(‐)‐piperitone] | 180 ± 19 µM |
| CC(C)=C1CC[C@@H](C)CC1=O [(+)‐pulegone] | 290 ± 47 µM |
| CC(C)[C@@H]1CC[C@@H](C)CC1=O [menthone] | 570 ± 100 µM |
